Laboratory results published in ChEMBL document CHEMBL1157811, “Synthesis, anticoagulant and PIVKA-II induced by new 4-hydroxycoumarin derivatives” (Bioorg Med Chem, 2010).
Active and inactive are the calls of the source. The rule behind the calls is not given here.

Tested on: HepG2
Test: Anticoagulant activity in human HepG2 cells assessed as accumulation of des-gamma carboxyprothrombin at 30 uM after 24 hrs by ELISA
Assay type: functional, cell-based
Conditions: not given

SMILES | Activity
O=c1oc2ccccc2c(O)c1C1=NNC(c2cccnc2)C1 (stereo not given) | inactive
COc1ccc(C2CC(c3c(O)c4ccccc4oc3=O)=NN2C(=S)Nc2ccccc2)cc1 (stereo not given) | inactive
NC(=S)N1N=C(c2c(O)c3ccccc3oc2=O)CC1c1cccnc1 (stereo not given) | Active
COc1cc(C2CC(c3c(O)c4ccccc4oc3=O)=NC(S)=N2)cc(OC)c1OC (stereo not given) | Active
COc1cc(C2CC(c3c(O)c4ccccc4oc3=O)=NN2)cc(OC)c1OC (stereo not given) | inactive
COc1cc(-c2cc(-c3c(O)c4ccccc4oc3=O)[nH]c(=O)c2C#N)cc(OC)c1OC | inactive
N#Cc1c(-c2ccco2)cc(-c2c(O)c3ccccc3oc2=O)nc1N | Active
COc1ccc(C2CC(c3c(O)c4ccccc4oc3=O)=NN2)cc1 (stereo not given) | Active
COc1ccc(C2CC(c3c(O)c4ccccc4oc3=O)=NN2C(N)=S)cc1 (stereo not given) | Active
O=c1oc2ccccc2c(O)c1C1=NN(C(=S)Nc2ccccc2)C(c2cccnc2)C1 (stereo not given) | Active

Tested on: HepG2
Test: Anticoagulant activity in human HepG2 cells assessed as accumulation of des-gamma carboxyprothrombin at 3.3 uM after 24 hrs by ELISA
Assay type: functional, cell-based
Conditions: not given

SMILES | Activity
COc1cc(C2CC(c3c(O)c4ccccc4oc3=O)=NN2c2ccccc2)cc(OC)c1OC (stereo not given) | inactive
COc1cc(C2CC(c3c(O)c4ccccc4oc3=O)=NN2C(=S)Nc2ccccc2)cc(OC)c1OC (stereo not given) | inactive

Tested on: HepG2
Test: Anticoagulant activity in human HepG2 cells assessed as accumulation of des-gamma carboxyprothrombin after 24 hrs by ELISA
Assay type: functional, cell-based
Conditions: not given

SMILES | Activity
CC(=O)CC(c1ccccc1)c1c(O)c2ccccc2oc1=O (stereo not given) [WARFARIN] | Dose-dependent effect

Tested on: HepG2
Test: Anticoagulant activity in human HepG2 cells assessed as accumulation of des-gamma carboxyprothrombin at 30 uM after 24 hrs by ELISA relative to warfarin
Assay type: functional
Conditions: not given

SMILES | Activity [%]
N#Cc1c(-c2ccco2)cc(-c2c(O)c3ccccc3oc2=O)[nH]c1=O | 8.8
NC(=S)N1N=C(c2c(O)c3ccccc3oc2=O)CC1c1cccnc1 (stereo not given) | 11.2
COc1cc(C2CC(c3c(O)c4ccccc4oc3=O)=NC(S)=N2)cc(OC)c1OC (stereo not given) | 13
N#Cc1c(-c2ccco2)cc(-c2c(O)c3ccccc3oc2=O)nc1N | 10
COc1ccc(C2CC(c3c(O)c4ccccc4oc3=O)=NN2)cc1 (stereo not given) | 17.3
O=c1oc2ccccc2c(O)c1C1=NC(S)=NC(c2cccnc2)C1 (stereo not given) | 8
O=c1oc2ccccc2c(O)c1C1=NN(c2ccccc2)C(c2cccnc2)C1 (stereo not given) | 8.7
COc1ccc(C2CC(c3c(O)c4ccccc4oc3=O)=NN2C(N)=S)cc1 (stereo not given) | 18.1
O=c1oc2ccccc2c(O)c1C1=NN(C(=S)Nc2ccccc2)C(c2cccnc2)C1 (stereo not given) | 19.4

Tested on: HepG2
Test: Anticoagulant activity in human HepG2 cells assessed as accumulation of des-gamma carboxyprothrombin at 10 uM after 24 hrs by ELISA relative to warfarin
Assay type: functional
Conditions: not given

SMILES | Activity
N#Cc1c(-c2ccco2)cc(-c2c(O)c3ccccc3oc2=O)[nH]c1=O | 10%
N#Cc1c(-c2cccnc2)cc(-c2c(O)c3ccccc3oc2=O)[nH]c1=O | 10%
NC(=S)N1N=C(c2c(O)c3ccccc3oc2=O)CC1c1cccnc1 (stereo not given) | 9.1%
COc1cc(C2CC(c3c(O)c4ccccc4oc3=O)=NC(S)=N2)cc(OC)c1OC (stereo not given) | 5.2%
N#Cc1c(-c2ccco2)cc(-c2c(O)c3ccccc3oc2=O)nc1N | 7.4%
COc1ccc(C2CC(c3c(O)c4ccccc4oc3=O)=NN2)cc1 (stereo not given) | 17.76%
O=c1oc2ccccc2c(O)c1C1=NC(S)=NC(c2cccnc2)C1 (stereo not given) | inactive
O=c1oc2ccccc2c(O)c1C1=NN(c2ccccc2)C(c2cccnc2)C1 (stereo not given) | 8.4%
COc1ccc(C2CC(c3c(O)c4ccccc4oc3=O)=NN2C(N)=S)cc1 (stereo not given) | 13.7%
O=c1oc2ccccc2c(O)c1C1=NN(C(=S)Nc2ccccc2)C(c2cccnc2)C1 (stereo not given) | 19.3%

Tested on: HepG2
Test: Anticoagulant activity in human HepG2 cells assessed as accumulation of des-gamma carboxyprothrombin at 3.33 uM after 24 hrs by ELISA relative to warfarin
Assay type: functional
Conditions: not given

SMILES | Activity
N#Cc1c(-c2cccnc2)cc(-c2c(O)c3ccccc3oc2=O)[nH]c1=O | inactive
CC(=O)N1N=C(c2c(O)c3ccccc3oc2=O)CC1c1cccnc1 (stereo not given) | 11.45%

Tested on: HepG2
Test: Anticoagulant activity in human HepG2 cells assessed as accumulation of des-gamma carboxyprothrombin at 1.1 uM after 24 hrs by ELISA relative to warfarin
Assay type: functional, cell-based
Conditions: not given

SMILES | Activity
CC(=O)N1N=C(c2c(O)c3ccccc3oc2=O)CC1c1cccnc1 (stereo not given) | inactive

Tested on: Mus musculus
Test: Ex vivo anticoagulant activity in albino mouse assessed as blood clotting time at 150 mg/kg, po administered daily for 3 successive days measured after 24 hrs of last dose
Assay type: functional
Conditions: not given

SMILES | Time [s]
O=c1oc2ccccc2c(O)c1C1=NNC(c2cccnc2)C1 (stereo not given) | 17.67
CC(=O)CC(c1ccccc1)c1c(O)c2ccccc2oc1=O (stereo not given) [WARFARIN] | 18.17
NC(=S)N1N=C(c2c(O)c3ccccc3oc2=O)CC1c1cccnc1 (stereo not given) | 16.67
COc1cc(C2CC(c3c(O)c4ccccc4oc3=O)=NC(S)=N2)cc(OC)c1OC (stereo not given) | 15.83
COc1cc(-c2cc(-c3c(O)c4ccccc4oc3=O)[nH]c(=O)c2C#N)cc(OC)c1OC | 15.67
COc1cc(-c2cc(-c3c(O)c4ccccc4oc3=O)nc(N)c2C#N)cc(OC)c1OC | 9.5
O=c1oc2ccccc2c(O)c1C1=NN(c2ccccc2)C(c2cccnc2)C1 (stereo not given) | 22.5
CC(=O)N1N=C(c2c(O)c3ccccc3oc2=O)CC1c1cccnc1 (stereo not given) | 20.83
O=c1oc2ccccc2c(O)c1C1=NN(C(=S)Nc2ccccc2)C(c2cccnc2)C1 (stereo not given) | 12.17

Tested on: Mus musculus
Test: Ex vivo anticoagulant activity in albino mouse assessed as prothrombin time at 150 mg/kg, po administered daily for 3 successive days measured after 24 hrs of last dose
Assay type: functional
Conditions: not given

SMILES | Time [min]
O=c1oc2ccccc2c(O)c1C1=NNC(c2cccnc2)C1 (stereo not given) | 0.53
CC(=O)CC(c1ccccc1)c1c(O)c2ccccc2oc1=O (stereo not given) [WARFARIN] | 4.445
NC(=S)N1N=C(c2c(O)c3ccccc3oc2=O)CC1c1cccnc1 (stereo not given) | 4.017
COc1cc(C2CC(c3c(O)c4ccccc4oc3=O)=NC(S)=N2)cc(OC)c1OC (stereo not given) | 0.173
COc1cc(-c2cc(-c3c(O)c4ccccc4oc3=O)[nH]c(=O)c2C#N)cc(OC)c1OC | 0.192
COc1cc(-c2cc(-c3c(O)c4ccccc4oc3=O)nc(N)c2C#N)cc(OC)c1OC | 0.193
O=c1oc2ccccc2c(O)c1C1=NN(c2ccccc2)C(c2cccnc2)C1 (stereo not given) | 0.827
CC(=O)N1N=C(c2c(O)c3ccccc3oc2=O)CC1c1cccnc1 (stereo not given) | 3.373
O=c1oc2ccccc2c(O)c1C1=NN(C(=S)Nc2ccccc2)C(c2cccnc2)C1 (stereo not given) | 3.505

Tested on: not listed separately
Test: Toxicity in po dosed albino mouse assessed as mortality administered daily for 3 successive days
Assay type: organism-based
Conditions: in vivo

SMILES | LD50 at 3 days [mg/kg]
CC(=O)CC(c1ccccc1)c1c(O)c2ccccc2oc1=O (stereo not given) [WARFARIN] | 760
O=c1oc2ccccc2c(O)c1C1=NN(c2ccccc2)C(c2cccnc2)C1 (stereo not given) | 1790
